Usually melting point stands for the temperature of the solid-liquid transition.

On to `CCN(CC)CCSC1=C(C#N)C(c2cccnc2)(c2ccc(OC)c(OC)c2)C(=O)N1` (configuration not stated), for which the melting point is 133 to 135 °C.
Next, `Cc1c(-c2ccccc2)[nH]c(=O)n1C1CCN(Cc2cccc3c2OCO3)CC1`: 244 to 245 °C; `CSc1nc(C)cc(Cl)n1`: 37 to 38 °C; `N#CCCCc1ncccc1NS(=O)(=O)c1ccccc1`: 80 to 81 °C.
`Nc1ccc([N+](=O)[O-])cc1OCCO`: the melting point was in the range of 140 to 142 °C.
As for `CC1CCC(CCC(=O)O)(CCC(=O)O)C(=O)C1(CCC(=O)O)CCC(=O)O` (configuration not stated), the figure is 210 to 213 °C; as for `COCC(C)NC1=NS(=O)(=O)c2cnccc2N1` (configuration not stated), 174 to 178 °C; as for `O=Cc1cn(Cc2ccc(OCc3ccccc3)cc2)cc1-c1ccccc1`, 100 to 101 °C.
As for `CCCCOc1c(C(=O)O)n(CC(C)C)c(=O)c2ccc(OCc3ccccc3)cc12`, the figure is 151 to 152 °C.
As for `COc1ccc(-n2cnnc2SC)cc1`, the figure is 172 °C.
`CCCOc1cc(CCCOc2c(CC(=O)O)cccc2OC)n(Cc2ccc3ccccc3n2)n1` yielded a melting point of 97 to 98 °C.
Regarding `CC1(C)Cc2nc(C3CCCC3)c(C(=O)c3ccc(C(F)(F)F)cc3)c(-c3ccsc3)c2C(O)C1` (configuration not stated), the melting point was in the range of 179 to 182 °C.
Consider `Cn1c(COc2ccc(CC3SC(=O)N(C(c4ccccc4)(c4ccccc4)c4ccccc4)C3=O)cc2)nc2cccnc21` (configuration not stated), for which the melting point fell in the range of 97 to 102 °C.
As for `COc1cccc(Cc2ccc3[nH]c4cnn(C)c4c(=O)c3c2)c1`, the figure is 246 to 250 °C; as for `O=C1c2ccccc2C(=O)N1CC(=O)N1c2ccccc2N(Cc2ccc(O)cc2)C(=O)[C@H]2CCC[C@H]21` (relative stereo), 264 to 267 °C; as for `CCCC[C@H](NC(=O)[C@H](CC(C)C)NC(=O)c1ccccc1C)C(=O)CSCc1ccco1`, 118 to 119 °C.
As for `CN(c1nc(Nc2ccc(O)cc2)nc(NC2CCCCCC2)n1)C1CCNCC1`, the figure is 130 °C; as for `O=C(O)Cc1ccn2c(=O)c(C(=O)O)ccc2c1`, above 250 °C.
Next, `CC(C)(C)c1csc(COc2cccc(C(=O)Nc3cc(CCCS(=O)(=O)c4ccc(Cl)cc4)ccc3OCC(N)=O)c2)n1`: 147 to 148 °C; `Nc1ccccc1Oc1ccc2ncccc2c1`: 115 to 117 °C; `Oc1ccc(CCNC[C@H](O)COc2ccccc2)cc1`: 118 to 119 °C.
`COc1ccc(C(=O)Nc2ccc(-c3ccc(-c4noc(C)n4)cc3C)cc2)cc1CCCN(C)C` yielded a melting point of 163 to 165 °C.
Take `CC=C1C=C(OC)N=C(N)N1`: the melting point lay within 119 to 122 °C.
As for `COc1ccc(C(=O)Cc2c(Cl)cncc2Cl)c2c(CC(=O)Nc3cccnc3)coc12`, the figure is 252 to 255 °C; as for `CC(Cl)(Cl)C(NC(=O)c1ccc(Cl)cc1)NC(=NC#N)Nc1ccccc1F` (configuration not stated), 216 to 217 °C.
Next, `CCC(C)Cc1nc(-c2cc[nH]n2)nc(OC)c1-c1c(F)cc(F)cc1F` (configuration not stated): 124 °C; `Cn1cc(-c2ccnc(N[C@H]3CC[C@H](O)CC3)n2)c2ccccc21`: 194 to 195 °C; `O=C(C=CC(F)(F)F)Nc1ccc2ncnc(Nc3cccc(Br)c3)c2c1`: 273 to 278 °C.
Next, `CC1=C(c2ccc(OCC(=O)O)c(Cl)c2Cl)CC(C)CC1=O` (configuration not stated): 170 to 173 °C.
Regarding `CC(C)OC(=O)Cn1c(-c2ccc(Cl)cc2)nc2cccnc21`, the melting point lay in the range of 118 to 120 °C.
As for `Cc1c(Cl)c(Cl)c(Cl)c(CCl)c1Cl`, the figure is 88 to 89 °C; as for `CC(=O)N(CCCC(=O)O)C1CCCc2ccccc21` (configuration not stated), 141 to 142 °C.
Next, `O=C(O)C12CC3CC(F)(CC(F)(C3)C1)C2`: 162 to 164 °C; `CCOc1cc2c(Nc3cc(OC)c(Cl)cc3Cl)c(C#N)cnc2cc1NC(C)=O`: 245 to 248 °C.
For the compound `CN1c2ccccc2CC1COc1ccc(CC2SC(=O)NC2=O)cc1` (configuration not stated), the melting point fell in the range of 46.1 to 48.9 °C.
Next, `CC(C)(C)S(=O)c1cccc(F)c1C(=O)NCCCl` (configuration not stated): 80 to 90 °C; `C=C(C)c1cc(-c2ccc(OCCNS(C)(=O)=O)cc2)n(-c2ccc(OC)nc2)n1`: 96 to 99 °C.
Compound `CCOC(=O)c1ccccc1Sc1ccn(C(=O)N(CC)CC)n1` registered a melting point of 65 to 67 °C.
As for `O=S1(=O)c2cccc3cccc(c23)N1CCN1CCN(c2noc3ccccc23)CC1`, the figure is 148 °C; as for `COC(=O)C1Oc2ccccc2C(C)c2ccccc2O1` (configuration not stated), 95 to 120 °C; as for `O=C(NNC(=O)c1ccccc1C(F)(F)F)c1ccccc1F`, 171 to 173 °C.
With `O=[N+]([O-])C/C=C/c1sc2ccc(Cl)cc2c1Cl`, the melting point was in the range of 143 to 146 °C.
Next, `CCCCC(=O)CC(=O)c1ccc(C2CCC(CC)CC2)cc1` (configuration not stated): 90 °C; `CC(=Cc1ccc(O)cc1)c1ccc2c(c1)C(C)(C)C(O)C2(C)C` (configuration not stated): 148 to 149 °C.
Next, `Fc1ccc(-c2ncn(C3CCNCC3)c2-c2ccnc(Oc3ccc(OCc4ccccc4)cc3)n2)cc1`: 178 to 179 °C.
As for `N#Cc1ccc(-c2ccc(C(=O)O)cn2)cc1`, the figure is above 260 °C; as for `CCc1nc2cccc(C(=O)OC)c2n1Cc1ccc(-c2ccccc2-c2nc(=O)s[nH]2)cc1`, 203 to 205 °C; as for `COC(=O)C1=C(C)NC(C)=C(C(=O)OC)C1c1ccccc1COC(C)=O`, 149 to 151 °C.
The compound `CCCCCCCCCCCCCOc1ccc(CNc2ccc(C(=O)OCC)cc2)cc1` gave a melting point of 95 to 105 °C.
Next, `COc1nscc1C(=O)O`: 182 to 185 °C.
On to `CCOC(=O)COc1ccc(CN2C(=O)C3(COc4cc5c(cc43)CCO5)c3ccccc32)cc1` (configuration not stated), for which the melting point lay within 158 to 159 °C.
As for `CCOC(=O)c1ccc(OCCCCC(=O)c2ccc(Cl)s2)cc1`, the figure is 87 to 89 °C; as for `COc1ccc(-c2c(-c3ccccc3)nc3n2CCS3)cc1OC`, 176 to 178 °C; as for `CCc1ccc(C(=O)C2=C(O)C(=O)N(c3ccc(C)nn3)C2c2ccc(OC(F)(F)F)cc2)cc1` (configuration not stated), 263 to 267 °C.
Next, `CC1(c2[nH]c3ccccc3c2C2=C(Cl)C(=O)C=C(Cl)C2=O)CC1`: 170 to 171 °C; `CC(=O)OC1CSC(Oc2ccc(C)nc2[N+](=O)[O-])C(OC(C)=O)C1OC(C)=O` (configuration not stated): 154 °C.
Next, `CCCCC/C(=C\C=C\C(=O)O)c1ccc(F)cc1`: 116 to 118 °C.
`CC(C)(O)Cc1ccc(NC(=O)OCc2ccccc2)cc1` came in with a melting point of 117 to 118 °C.
Next, `Cc1nc(C(O)(c2nc(C)c(C)s2)C(F)(F)F)sc1C`: 122 to 124 °C; `COc1cc2ncnc(N3CCC(C(O)CN4CCC(C)NS4(=O)=O)CC3)c2cc1OC` (configuration not stated): 189 to 193 °C.
As for `CC(C)C(=O)N[C@@H](CSC(=O)c1ccccc1)C(=O)NCCSC(=O)C(C)(C)C`, the figure is 123 to 124 °C.
As for `O=C(/C=C/c1cccc(NS(=O)(=O)c2ccc(C(=O)Nc3ccc(Cl)c(-c4ccccn4)c3)c(Cl)c2)c1)NO`, the figure is 217 to 221 °C.

Values taken from a melting point compilation (Tetko et al.; mined from patent text by program, amines drawn as free bases though some values may be those of a salt).
